Data on 27 compounds can be found in PubChem BioAssay AID256 (DTP/NCI, 2004).

Inconclusive results and toxic doses are left out.

The experiment concerns CD2F1 mice, L1210 leukemia ip, survival T/C. Briefly: NCI In Vivo Anticancer Drug Screen. Data for tumor model L1210 Leukemia (intraperitoneal) in CD2F1 (CDF1) mice. Conditions: higher = longer survival. An outline of the steps: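 Transplantable tumor in mice; compound-treated vs vehicle-treated groups. Read-out = treated/control ratio of the measured endpoint.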
[1] abbreviates: endpoint: mean survival time, dose: 100.0 mg/kg/injection, schedule: Q01DX009 (ip), vehicle: saline with Tween-80.
Where [2] appears, read: endpoint: mean survival time, dose: 200.0 mg/kg/injection, schedule: Q01DX009 (ip), vehicle: saline with Tween-80.
Where [3] appears, read: endpoint: mean survival time, dose: 400.0 mg/kg/injection, schedule: Q01DX009 (ip), vehicle: saline with Tween-80.
Setting [4] is: endpoint: mean survival time, dose: 100.0 mg/kg/injection, schedule: Q04DX003 (ip), vehicle: saline with Tween-80.
The mark [5] stands for this setting: endpoint: mean survival time, dose: 200.0 mg/kg/injection, schedule: Q04DX003 (ip), vehicle: saline with Tween-80.
The mark [6] stands for this setting: endpoint: mean survival time, dose: 400.0 mg/kg/injection, schedule: Q04DX003 (ip), vehicle: saline with Tween-80.
[7] abbreviates: endpoint: mean survival time, dose: 100.0 mg/kg/injection, schedule: Q01DX009 (ip), vehicle: saline.
Where [8] appears, read: endpoint: mean survival time, dose: 200.0 mg/kg/injection, schedule: Q01DX009 (ip), vehicle: saline.
Setting [9] is: endpoint: mean survival time, dose: 400.0 mg/kg/injection, schedule: Q01DX009 (ip), vehicle: saline.
[10] abbreviates: endpoint: mean survival time, dose: 50.0 mg/kg/injection, schedule: Q01DX009 (ip), vehicle: saline with Tween-80.

Turning to `c1cc[n+](Cc2ccc3ccccc3c2)c(C2OCCO2)c1`, the T/C (endpoint: mean survival time, dose: 5.0 mg/kg/injection, schedule: Q01DX009 (ip), vehicle: saline) is 102 % of control; the T/C (endpoint: mean survival time, dose: 10.0 mg/kg/injection, schedule: Q01DX009 (ip), vehicle: saline) is 102 % of control; the T/C (endpoint: mean survival time, dose: 20.0 mg/kg/injection, schedule: Q01DX009 (ip), vehicle: saline) was 105 % of control.
With `N#CC(/C=C/c1ccccc1)Nc1ccc(CCc2ccc(NC(C#N)/C=C/c3ccccc3)cc2)cc1` (stereo unspecified), the T/C by setting is: under setting [1], 94 % of control; under setting [2], 90 % of control; under setting [3], 100 % of control.
Turning to `Nc1ncnc2cc3ncn(C4OC(CO)C(O)C4O)c3cc12` (stereo unspecified), the T/C was 100 % of control (endpoint: mean survival time, dose: 12.5 mg/kg/injection, schedule: Q01DX005 (ip), vehicle: water); 104 % of control (endpoint: mean survival time, dose: 25.0 mg/kg/injection, schedule: Q01DX005 (ip), vehicle: water); 106 % of control (endpoint: mean survival time, dose: 50.0 mg/kg/injection, schedule: Q01DX005 (ip), vehicle: water); 100 % of control (endpoint: mean survival time, dose: 100.0 mg/kg/injection, schedule: Q01DX005 (ip), vehicle: water); 100 % of control (endpoint: mean survival time, dose: 200.0 mg/kg/injection, schedule: Q01DX005 (ip), vehicle: water).
With `COC(=O)C(C)CC(C)(C=O)OC` (stereo unspecified), the T/C runs as follows: under setting [1], 102 % of control; under setting [2], 96 % of control; under setting [3], 96 % of control.
For the compound `CC(=O)OCC1OC(Oc2ccccc2)C(OC(C)=O)C(OC(C)=O)C1OC(C)=O` (stereo unspecified), the T/C by setting is: (endpoint: median survival time, dose: 50.0 mg/kg/injection, schedule: Q04DX002 (ip), vehicle: saline with Tween-80) 100 % of control; (endpoint: median survival time, dose: 100.0 mg/kg/injection, schedule: Q04DX002 (ip), vehicle: saline with Tween-80) 100 % of control; (endpoint: median survival time, dose: 200.0 mg/kg/injection, schedule: Q04DX002 (ip), vehicle: saline with Tween-80) 111 % of control; (endpoint: median survival time, dose: 400.0 mg/kg/injection, schedule: Q04DX002 (ip), vehicle: saline with Tween-80) 88 % of control.
Take `OC1C2CC3C1C3C2O` (stereo unspecified): the T/C is 94 % of control under setting [4], 97 % of control under setting [5] and 105 % of control under setting [6].
As for `CC(C)(C)C=O`, the T/C was 95 % of control under setting [7], 102 % of control under setting [8] and 96 % of control under setting [9].
For `CCOC(=O)CCN(CC)CC`, the T/C under setting [7] was 106 % of control, the T/C under setting [8] is 97 % of control and the T/C under setting [9] was 97 % of control.
On to `[Co].[NH-]CC[NH-].[NH-]CC[NH-].[NH-]CC[NH-]`, for which the T/C (endpoint: mean survival time, dose: 25.0 mg/kg/injection, schedule: Q01DX009 (ip), vehicle: saline with Tween-80) is 93 % of control; the T/C under setting [10] was 101 % of control; the T/C under setting [1] is 110 % of control; the T/C (endpoint: mean survival time, dose: 100.0 mg/kg/injection, schedule: Q04DX003 (ip), vehicle: saline sonified) was 104 % of control.
With `CNCCOC(=O)/C=C/c1ccccc1`, the T/C reads like this: under setting [7], 98 % of control; under setting [8], 95 % of control; under setting [9], 95 % of control.
Turning to `CS(=O)(=O)C(=Cc1ccccc1Cl)S(C)(=O)=O`, the T/C under setting [4] was 103 % of control, the T/C under setting [5] is 95 % of control and the T/C under setting [6] was 101 % of control.
Consider `Cc1nc(/N=C(\N)Nc2ccc(Cl)c(Cl)c2)[nH]c(=O)c1Cc1ccccc1`, for which the T/C under setting [4] is 95 % of control, the T/C under setting [5] was 88 % of control and the T/C under setting [6] is 102 % of control.
Turning to `CCCCCOP(N)(=O)OCCCCC`, the T/C was 88 % of control (endpoint: mean survival time, dose: 100.0 mg/kg/injection, schedule: Q04DX002 (ip), vehicle: saline with Tween-80); 92 % of control (endpoint: mean survival time, dose: 200.0 mg/kg/injection, schedule: Q04DX002 (ip), vehicle: saline with Tween-80); 100 % of control (endpoint: mean survival time, dose: 400.0 mg/kg/injection, schedule: Q04DX002 (ip), vehicle: saline with Tween-80).
`CC1CCN(Cc2c(COc3ccc(Cl)cc3)n(C)c3ccccc23)CC1`: the T/C reads like this: under setting [4], 87 % of control; under setting [5], 93 % of control; under setting [6], 94 % of control.
As for `CCOP(=O)(OCC)/C(C#N)=C\c1ccc(N(C)C)cc1`, the T/C under setting [4] was 101 % of control, the T/C under setting [5] is 95 % of control and the T/C under setting [6] is 98 % of control.
Consider `COc1cc2c(cc1OC)C(N)CCC2` (stereo unspecified), for which the T/C is 97 % of control (endpoint: mean survival time, dose: 12.5 mg/kg/injection, schedule: Q01DX009 (ip), vehicle: water); 103 % of control (endpoint: mean survival time, dose: 25.0 mg/kg/injection, schedule: Q01DX009 (ip), vehicle: water); 98 % of control (endpoint: mean survival time, dose: 50.0 mg/kg/injection, schedule: Q01DX009 (ip), vehicle: water); 105 % of control (endpoint: mean survival time, dose: 100.0 mg/kg/injection, schedule: Q01DX009 (ip), vehicle: water).
`CCN(CC)S(=O)(=O)c1ccc(-c2cc(Cl)c3cc(S(=O)(=O)F)ccc3n2)cc1`: the T/C runs as follows: under setting [1], 107 % of control; under setting [2], 87 % of control; under setting [3], 91 % of control.
`NC(=O)C1=C2CCCc3cccc(c32)C1=O`: the T/C is 94 % of control under setting [1]; 99 % of control under setting [4]; 94 % of control under setting [2]; 100 % of control under setting [5]; 97 % of control under setting [3]; 87 % of control under setting [6].
`COC1C2CCC1N(C)CC2` (stereo unspecified): the T/C reads like this: (endpoint: mean survival time, dose: 37.5 mg/kg/injection, schedule: Q04DX002 (ip), vehicle: saline with Tween-80) 106 % of control; (endpoint: mean survival time, dose: 75.0 mg/kg/injection, schedule: Q04DX002 (ip), vehicle: saline with Tween-80) 98 % of control; (endpoint: mean survival time, dose: 150.0 mg/kg/injection, schedule: Q04DX002 (ip), vehicle: saline with Tween-80) 117 % of control; (endpoint: mean survival time, dose: 300.0 mg/kg/injection, schedule: Q04DX002 (ip), vehicle: saline with Tween-80) 95 % of control.
Regarding `O=C(O)C(O)(c1ccccc1)c1ccsc1` (stereo unspecified), the T/C under setting [4] is 101 % of control, the T/C under setting [5] is 98 % of control and the T/C under setting [6] was 103 % of control.
Regarding `O=C(OC1C=CCC=C1)c1cc([N+](=O)[O-])cc([N+](=O)[O-])c1`, the T/C is 101 % of control (endpoint: mean survival time, dose: 100.0 mg/kg/injection, schedule: Q01DX009 (ip), vehicle: other); 95 % of control (endpoint: mean survival time, dose: 200.0 mg/kg/injection, schedule: Q01DX009 (ip), vehicle: other); 93 % of control (endpoint: mean survival time, dose: 400.0 mg/kg/injection, schedule: Q01DX009 (ip), vehicle: other).
On to `CCC(c1ccc(OC)cc1)C(CC)c1ccc(O)c(CN2CCN(C)CC2)c1` (stereo unspecified), for which, under setting [1], the T/C was 102 % of control.
For the compound `OC1(c2ccccc2)c2ccccc2C(O)(c2ccccc2)c2c1ccc1ccccc21` (stereo unspecified), the T/C by setting is: under setting [10], 91 % of control; under setting [1], 94 % of control; under setting [2], 91 % of control.
Turning to `C=C(C)C(=NC(C)(C)C)Nc1ccccc1`, the T/C runs as follows: (endpoint: median survival time, dose: 6.25 mg/kg/injection, schedule: Q01DX009 (ip), vehicle: saline with Tween-80) 105 % of control; (endpoint: median survival time, dose: 12.5 mg/kg/injection, schedule: Q01DX009 (ip), vehicle: saline with Tween-80) 110 % of control; (endpoint: median survival time, dose: 25.0 mg/kg/injection, schedule: Q01DX009 (ip), vehicle: saline with Tween-80) 108 % of control; (endpoint: median survival time, dose: 50.0 mg/kg/injection, schedule: Q01DX009 (ip), vehicle: saline with Tween-80) 108 % of control; (endpoint: median survival time, dose: 100.0 mg/kg/injection, schedule: Q01DX009 (ip), vehicle: saline with Tween-80) 112 % of control; (endpoint: median survival time, dose: 200.0 mg/kg/injection, schedule: Q01DX009 (ip), vehicle: saline with Tween-80) 121 % of control.
Regarding `CCOC(=O)CCC(NC(=O)c1ccc(N(CC)Cc2cnc3nc(N)nc(N)c3n2)cc1)C(=O)OCC` (stereo unspecified), for the setting “endpoint: mean survival time, dose: 1.56 mg/kg/injection, schedule: Q01DX009 (ip), vehicle: Klucel (hydroxypropylcellulose) (HPC)”, the T/C was 152 % of control.
Regarding `O=C1OC(=O)C2C1C1(c3ccccc3)OC2(c2ccccc2)c2ccccc21` (stereo unspecified), the T/C by setting is: (endpoint: mean survival time, dose: 50.0 mg/kg/injection, schedule: Q01DX001 (ip), vehicle: saline with Tween-80) 100 % of control; (endpoint: mean survival time, dose: 100.0 mg/kg/injection, schedule: Q01DX001 (ip), vehicle: saline with Tween-80) 100 % of control; (endpoint: mean survival time, dose: 200.0 mg/kg/injection, schedule: Q01DX001 (ip), vehicle: saline with Tween-80) 100 % of control.
As for `Nc1ncc2ccccc2c1-c1ccc(NC(=O)CCCl)cc1`, the T/C is 98 % of control (endpoint: mean survival time, dose: 25.0 mg/kg/injection, schedule: Q04DX003 (ip), vehicle: DMSO); 102 % of control (endpoint: mean survival time, dose: 50.0 mg/kg/injection, schedule: Q04DX003 (ip), vehicle: DMSO); 95 % of control (endpoint: mean survival time, dose: 100.0 mg/kg/injection, schedule: Q04DX003 (ip), vehicle: DMSO); 102 % of control (endpoint: mean survival time, dose: 200.0 mg/kg/injection, schedule: Q04DX003 (ip), vehicle: DMSO); 90 % of control (endpoint: mean survival time, dose: 400.0 mg/kg/injection, schedule: Q04DX003 (ip), vehicle: DMSO).
